Measurements taken from PubChem BioAssay AID330 (DTP/NCI, 2004).
Where “and” joins values, the source holds several entries; their conditions need not be identical. Identical values can stand only once. Inconclusive results and toxic doses are left out. Rule for the calls: active = survival T/C of 150% or more; inactive = T/C below 125% in these data.

Test system: P388 leukemia ip, CD2F1 mice, survival T/C
Test: NCI In Vivo Anticancer Drug Screen. Data for tumor model P388 Leukemia (intraperitoneal) in CD2F1 (CDF1) mice
Conditions: endpoint: median survival time, higher = longer survival
Procedure, shortened: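 Mice carrying the transplanted tumor received test compound or vehicle. Survival was recorded in each group, and the value is the treated-group measurement divided by that of the vehicle-treated control group.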

[1] = dose: 100.0 mg/kg/injection, schedule: Q01DX009 (ip), vehicle: saline with Tween-80
[2] = dose: 100.0 mg/kg/injection, schedule: Q04DX003 (ip), vehicle: saline with Tween-80
[3] = dose: 400.0 mg/kg/injection, schedule: Q04DX003 (ip), vehicle: saline with Tween-80
[4] = dose: 50.0 mg/kg/injection, schedule: Q01DX005 (ip), vehicle: Klucel (hydroxypropylcellulose) (HPC)
[5] = dose: 100.0 mg/kg/injection, schedule: Q01DX005 (ip), vehicle: Klucel (hydroxypropylcellulose) (HPC)
[6] = dose: 200.0 mg/kg/injection, schedule: Q01DX005 (ip), vehicle: Klucel (hydroxypropylcellulose) (HPC)
[7] = dose: 60.0 mg/kg/injection, schedule: Q01DX005 (ip), vehicle: Klucel (hydroxypropylcellulose) (HPC)
[8] = dose: 120.0 mg/kg/injection, schedule: Q01DX005 (ip), vehicle: Klucel (hydroxypropylcellulose) (HPC)
[9] = dose: 240.0 mg/kg/injection, schedule: Q01DX005 (ip), vehicle: Klucel (hydroxypropylcellulose) (HPC)
[10] = dose: 50.0 mg/kg/injection, schedule: Q01DX005 (ip), vehicle: saline with Tween-80
[11] = dose: 100.0 mg/kg/injection, schedule: Q01DX005 (ip), vehicle: saline with Tween-80
[12] = dose: 200.0 mg/kg/injection, schedule: Q01DX005 (ip), vehicle: saline with Tween-80
[13] = dose: 25.0 mg/kg/injection, schedule: Q04DX003 (ip), vehicle: saline
[14] = dose: 50.0 mg/kg/injection, schedule: Q04DX003 (ip), vehicle: saline
[15] = dose: 100.0 mg/kg/injection, schedule: Q04DX003 (ip), vehicle: saline
[16] = dose: 200.0 mg/kg/injection, schedule: Q04DX003 (ip), vehicle: saline
[17] = dose: 60.0 mg/kg/injection, schedule: Q01DX005 (ip), vehicle: saline
[18] = dose: 120.0 mg/kg/injection, schedule: Q01DX005 (ip), vehicle: saline
[19] = dose: 240.0 mg/kg/injection, schedule: Q01DX005 (ip), vehicle: saline
[20] = dose: 50.0 mg/kg/injection, schedule: Q01DX009 (ip), vehicle: saline with Tween-80
[21] = dose: 25.0 mg/kg/injection, schedule: Q01DX005 (ip), vehicle: Klucel (hydroxypropylcellulose) (HPC)
[22] = dose: 50.0 mg/kg/injection, schedule: Q01DX005 (ip), vehicle: saline
[23] = dose: 200.0 mg/kg/injection, schedule: Q01DX005 (ip), vehicle: saline

Measured: T/C

COC(=O)CC(=O)c1ccc(OC(C)C)cc1
inactive: [1] 100 % of control | [2] 100 % of control | dose: 200.0 mg/kg/injection, schedule: Q01DX009 (ip), vehicle: saline with Tween-80 100 % of control | dose: 200.0 mg/kg/injection, schedule: Q04DX003 (ip), vehicle: saline with Tween-80 95 % of control | dose: 400.0 mg/kg/injection, schedule: Q01DX009 (ip), vehicle: saline with Tween-80 100 % of control | [3] 100 % of control

Cc1ccc(S(=O)CC#CC#CCS(=O)c2ccc(C)cc2)cc1 (stereo not drawn)
inactive: dose: 50.0 mg/kg/injection, schedule: Q01DX001 (ip), vehicle: saline with Tween-80 93 % of control | dose: 100.0 mg/kg/injection, schedule: Q01DX001 (ip), vehicle: saline with Tween-80 97 % of control | dose: 200.0 mg/kg/injection, schedule: Q01DX001 (ip), vehicle: saline with Tween-80 101 % of control

C=CCOc1cc2c(cc1C(CC)c1ccc(OC)cc1)OCO2 (stereo not drawn)
inactive: [4] 101 % of control | [5] 103 % of control | [6] 104 % of control

C=CC(C)(C)c1cc(O)c(OC)cc1O
inactive: [4] 95 % of control | [5] 102 % of control | [6] 100 % of control

C[C@]12CC[C@H]3[C@@H](C[C@H]4OC[C@@]35CC[C@H](O)C[C@]45Br)[C@@H]1CC[C@@H]2O
inactive: [4] 97 % of control | [5] 97 % of control | [6] 96 % of control

CCN(CC)CCN1C=CC(=C2C(=O)c3ccccc3C2=O)C=C1
inactive: [7] 99 % of control | [8] 101 % of control | [9] 99 % of control

COc1ccc2c(c1)c(=O)c(C(=O)O)cn2CCCOc1ccc([N+](=O)[O-])cc1
inactive: [7] 88 % of control | [8] 93 % of control | [9] 89 % of control

Cc1[nH]nc2c1NC(=O)OC(C)(C)C2
inactive: [10] 106 % of control | [11] 99 % of control | [12] 101 % of control

O=C1N(c2ccccc2)C(=O)C2(N(c3ccccc3)CCN2c2ccccc2)N1c1ccccc1
inactive: dose: 100.0 mg/kg/injection, schedule: Q04DX002 (ip), vehicle: saline with Tween-80 88 % of control | dose: 200.0 mg/kg/injection, schedule: Q04DX002 (ip), vehicle: saline with Tween-80 89 % of control | dose: 400.0 mg/kg/injection, schedule: Q04DX002 (ip), vehicle: saline with Tween-80 88 % of control

O=C1NC(=O)C2CC3C(CC12)C1C(=O)NC(=O)C31 (stereo not drawn)
inactive: [10] 104 % of control | [11] 101 % of control

CCOC(=O)[C]1([Sb]([CH3])[CH3])N=NC(C(=O)OC)=C1C(=O)OC (stereo not drawn)
inactive: [13] 101 % of control and 98 % of control | [14] 100 % of control and 102 % of control | [2] 108 % of control | [15] 102 % of control and 104 % of control | [16] 107 % of control and 98 % of control | [3] 105 % of control

CCOc1cccc(/C=N/N=C2\C(=O)Nc3c(Cl)cc(Cl)cc32)c1O
inactive: [10] 89 % of control | [11] 92 % of control | [12] 91 % of control

COC(/C=N/O)c1ccccc1 (stereo not drawn)
inactive: dose: 25.0 mg/kg/injection, schedule: Q04DX003 (ip), vehicle: saline with Tween-80 100 % of control | [13] 109 % of control | dose: 50.0 mg/kg/injection, schedule: Q04DX003 (ip), vehicle: saline with Tween-80 100 % of control and 94 % of control | [14] 101 % of control | [2] 106 % of control and 87 % of control | [15] 101 % of control | [16] 105 % of control

O=C(CNC(=O)Nc1cccc([N+](=O)[O-])c1)NNC(=O)Nc1ccccc1F
inactive: dose: 60.0 mg/kg/injection, schedule: Q01DX005 (ip), vehicle: saline with Tween-80 101 % of control | dose: 120.0 mg/kg/injection, schedule: Q01DX005 (ip), vehicle: saline with Tween-80 101 % of control | dose: 240.0 mg/kg/injection, schedule: Q01DX005 (ip), vehicle: saline with Tween-80 99 % of control

COC(=O)C1(CC(C)=O)NC(=S)NC(=O)C1C#N (stereo not drawn)
inactive: [17] 100 % of control | [18] 96 % of control | [19] 97 % of control

C(CCc1nn[nH]n1)CCC1CCCCC1
inactive: [10] 96 % of control | [11] 107 % of control

Cc1cc(OC2OC(CO)C(O)C(O)C2O)ccc1O (stereo not drawn)
inactive: dose: 25.0 mg/kg/injection, schedule: Q01DX009 (ip), vehicle: Klucel (hydroxypropylcellulose) (HPC) 87 % of control | dose: 50.0 mg/kg/injection, schedule: Q01DX009 (ip), vehicle: Klucel (hydroxypropylcellulose) (HPC) 96 % of control | dose: 200.0 mg/kg/injection, schedule: Q01DX009 (ip), vehicle: Klucel (hydroxypropylcellulose) (HPC) 89 % of control

Cc1ccc(C(c2ccccc2)c2ccc(C)cc2O)c(O)c1
inactive: [20] 118 % of control | [1] 105 % of control

CCOC(=O)c1nc2nc3cc(OC)c(OC)cc3cc2c(=O)[nH]1
inactive: [21] 93 % of control | [4] 87 % of control | [5] 86 % of control and 89 % of control | [6] 91 % of control

CCOC(=O)NC
inactive: [15] 104 % of control | [16] 100 % of control | dose: 400.0 mg/kg/injection, schedule: Q04DX003 (ip), vehicle: saline 104 % of control

Clc1ccc(OCCC(Cn2ccnc2)c2ccc(Cl)cc2Cl)c(Cl)c1 (stereo not drawn)
inactive: dose: 12.5 mg/kg/injection, schedule: Q01DX009 (ip), vehicle: saline with Tween-80 113 % of control | dose: 25.0 mg/kg/injection, schedule: Q01DX009 (ip), vehicle: saline with Tween-80 112 % of control | [20] 101 % of control

O=S(O)CCCCSSCC(O)CO (stereo not drawn)
inactive: dose: 30.0 mg/kg/injection, schedule: Q01DX005 (ip), vehicle: saline 101 % of control | [22] 111 % of control | [17] 115 % of control | [18] 115 % of control | [23] 111 % of control | [19] 117 % of control

CCCc1cc(=O)n(-c2ccc([N+](=O)[O-])cn2)c(=S)[nH]1
inactive: dose: 12.5 mg/kg/injection, schedule: Q01DX005 (ip), vehicle: Klucel (hydroxypropylcellulose) (HPC) 95 % of control | [21] 106 % of control | [4] 101 % of control and 116 % of control

COc1ccc([I+]c2ccc(OC)cc2)cc1
inactive: dose: 3.0 mg/kg/injection, schedule: Q01DX009 (ip), vehicle: saline with Tween-80 104 % of control | dose: 6.0 mg/kg/injection, schedule: Q01DX009 (ip), vehicle: saline with Tween-80 120 % of control

NNc1nnnn1-c1ccccc1
inactive: dose: 50.0 mg/kg/injection, schedule: Q01DX001 (ip), vehicle: Klucel (hydroxypropylcellulose) (HPC) 100 % of control | dose: 100.0 mg/kg/injection, schedule: Q01DX001 (ip), vehicle: Klucel (hydroxypropylcellulose) (HPC) 104 % of control | dose: 200.0 mg/kg/injection, schedule: Q01DX001 (ip), vehicle: Klucel (hydroxypropylcellulose) (HPC) 102 % of control

CCS1=C(C(C)=O)C(=O)OC(C)C1 (stereo not drawn)
inactive: [22] 100 % of control | dose: 100.0 mg/kg/injection, schedule: Q01DX005 (ip), vehicle: saline 100 % of control | [23] 106 % of control
